# Assay results taken from patent US20240309005A1 (priority 2021, published 2024).
# Columns and labels:
# [1] = target: CYP1A2 (Homo sapiens (Human), UniProt P05177); assay: in vitro; settings: microsomes
# [2] = physchem; settings: 25 °C, kinetic from dmso stock
# [3] = system: CYP3A4; assay: in vitro; settings: human, microsomes
# [4] = target: CYP2B6 (Homo sapiens (Human), UniProt P20813); assay: in vitro; settings: microsomes
# [5] = target: CYP2C9 (Homo sapiens (Human), UniProt P11712); assay: in vitro; settings: microsomes
# [6] = target: CYP2D6 (Homo sapiens (Human), UniProt P10635); assay: in vitro; settings: microsomes
# [7] = system: hERG / SGK1 (whole cell)
# [8] = in vivo; settings: male, CD1, mouse; for Cmax / bioavailability: po, 30 mg/kg
# [9] = male, SD, in vivo
# [10] = in vivo; settings: male, SD, rat; for bioavailability / Cmax: po, 30 mg/kg
# Chain of CYP2C9 (P11712 whole entry): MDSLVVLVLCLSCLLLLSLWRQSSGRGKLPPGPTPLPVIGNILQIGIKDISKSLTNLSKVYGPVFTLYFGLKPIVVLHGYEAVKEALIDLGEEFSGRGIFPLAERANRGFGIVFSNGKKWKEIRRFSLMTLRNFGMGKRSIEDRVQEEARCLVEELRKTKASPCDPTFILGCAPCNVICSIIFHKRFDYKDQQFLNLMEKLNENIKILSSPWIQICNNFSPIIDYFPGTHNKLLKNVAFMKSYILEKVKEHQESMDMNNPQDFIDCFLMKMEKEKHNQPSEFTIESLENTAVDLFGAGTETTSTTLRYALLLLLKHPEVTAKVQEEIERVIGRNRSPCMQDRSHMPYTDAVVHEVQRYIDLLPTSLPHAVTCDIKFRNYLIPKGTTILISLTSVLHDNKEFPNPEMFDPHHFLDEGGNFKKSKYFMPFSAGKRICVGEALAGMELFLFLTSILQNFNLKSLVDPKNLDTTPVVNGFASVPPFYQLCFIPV
# Chain of CYP2D6 (P10635 whole entry): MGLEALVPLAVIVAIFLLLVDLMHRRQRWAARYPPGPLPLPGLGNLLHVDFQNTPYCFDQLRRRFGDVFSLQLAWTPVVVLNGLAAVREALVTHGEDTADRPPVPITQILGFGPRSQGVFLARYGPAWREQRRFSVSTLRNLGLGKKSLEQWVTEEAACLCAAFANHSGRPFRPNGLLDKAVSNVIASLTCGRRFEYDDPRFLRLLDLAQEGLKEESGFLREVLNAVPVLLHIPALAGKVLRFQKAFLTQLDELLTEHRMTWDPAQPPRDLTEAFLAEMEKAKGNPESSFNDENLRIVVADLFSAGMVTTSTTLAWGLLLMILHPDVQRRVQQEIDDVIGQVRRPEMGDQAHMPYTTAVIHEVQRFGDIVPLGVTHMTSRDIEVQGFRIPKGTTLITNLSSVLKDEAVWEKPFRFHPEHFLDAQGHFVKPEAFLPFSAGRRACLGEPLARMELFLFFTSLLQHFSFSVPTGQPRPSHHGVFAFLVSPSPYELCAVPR
# Chain of CYP2B6 (P20813 whole entry): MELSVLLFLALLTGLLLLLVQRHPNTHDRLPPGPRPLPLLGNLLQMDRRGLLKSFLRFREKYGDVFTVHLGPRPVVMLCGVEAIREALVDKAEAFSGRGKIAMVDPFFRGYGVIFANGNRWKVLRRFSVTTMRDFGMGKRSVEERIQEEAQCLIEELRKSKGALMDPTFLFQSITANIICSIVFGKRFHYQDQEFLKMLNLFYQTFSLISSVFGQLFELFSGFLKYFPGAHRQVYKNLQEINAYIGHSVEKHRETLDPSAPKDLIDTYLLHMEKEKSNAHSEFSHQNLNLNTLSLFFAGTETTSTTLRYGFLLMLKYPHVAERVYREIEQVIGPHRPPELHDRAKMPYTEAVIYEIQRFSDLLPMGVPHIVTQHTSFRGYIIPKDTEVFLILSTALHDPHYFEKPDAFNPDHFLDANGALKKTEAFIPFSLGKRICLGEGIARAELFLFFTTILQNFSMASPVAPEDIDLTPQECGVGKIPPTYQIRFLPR
# Chain of CYP1A2 (P05177 whole entry): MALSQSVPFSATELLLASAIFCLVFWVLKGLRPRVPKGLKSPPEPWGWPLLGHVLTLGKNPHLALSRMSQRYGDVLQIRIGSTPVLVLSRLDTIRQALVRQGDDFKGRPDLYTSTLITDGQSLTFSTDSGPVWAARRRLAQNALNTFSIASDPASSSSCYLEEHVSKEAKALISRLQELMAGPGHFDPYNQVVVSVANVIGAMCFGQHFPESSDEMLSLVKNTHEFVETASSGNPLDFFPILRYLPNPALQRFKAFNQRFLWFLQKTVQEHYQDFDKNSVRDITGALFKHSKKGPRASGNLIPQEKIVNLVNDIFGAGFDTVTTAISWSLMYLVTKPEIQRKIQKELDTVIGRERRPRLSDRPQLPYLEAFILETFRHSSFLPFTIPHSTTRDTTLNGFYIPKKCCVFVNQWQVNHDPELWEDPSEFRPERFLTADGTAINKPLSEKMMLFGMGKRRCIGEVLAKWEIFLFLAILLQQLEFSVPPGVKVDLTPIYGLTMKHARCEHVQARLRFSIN
Structure (SMILES),"inhibition at 20 min, 10 µM [1] [%]","solubility at 2 h ([2]; pH 5, fessif) [µM]","solubility at 2 h ([2]; pH 7.4, aqueous buffer) [µM]","inhibition at 5 min, 10 µM [3] [%]","inhibition at 10 min, 10 µM [3] [%]","inhibition at 20 min, 10 µM [4] [%]","inhibition at 20 min, 10 µM [5] [%]","inhibition at 20 min, 10 µM [6] [%]",Cmax [8] [ng/mL],bioavailability [8] [%],pK Data in Rat: F [9],half-life [10] [h],bioavailability [10] [%],Cmax ([10]; Cmax (ng/ml)) [ng/mL],Cmax ([10]; pK Data in Rat: Cmax) [ng/mL],half-life [8] [h],hERG/IC50 [7]
"Cc1n[nH]c2nc(-c3ccc(NS(=O)(=O)N4CCCC4)cc3)nc(OC3CCN(C(C)C)CC3)c12 [Compound 2, N-(4-(4-((1-isopropylpiperidin-4-yl)oxy)-3-methyl-1H-pyrazolo[3,4-d]pyrimidin-6-yl)phenyl)pyrrolidine-1-sulfonamide]",5.9,291,59.1,7,13,-5,13,7.3,,,,,,,,,
"COc1ccncc1S(=O)(=O)Nc1ccc(-c2nc(NCCN(C)C)c3c(C)n[nH]c3n2)cc1 [Compound 19, N-(4-(4-(2-(dimethylamino)ethylamino)-3-methyl-1H-pyrazolo[3,4-d]pyrimidin-6-yl)phenyl)-4-methoxypyridine-3-sulfonamide]",,297,37,,,,,,9.3,0.31,,,,,,,1.5
"Cc1n[nH]c2nc(-c3ccc(NS(=O)(=O)c4cc(Cl)ccc4F)cc3)nc(NCCN(C)CCO)c12 [Compound 22, 5-chloro-2-fluoro-N-[4-[4-([2-[(2-hydroxyethyl)(methyl)amino]ethyl]amino)-3-methyl-1H-pyrazolo[3,4-d]pyrimidin-6-yl]phenyl]benzenesulfonamide]",,289,8.37,,,,,,37.9,2.5,Cmax = 42 ng/mL F = 2.8%,5.14,2.79,41.9,42,2.3,201
"Cc1n[nH]c2nc(-c3ccc(NS(=O)(=O)c4cccnc4)cc3)nc(NCCN(C)C)c12 [Compound 23, N-[4-(4-[[2-(dimethylamino)ethyl]amino]-3-methyl-1H-pyrazolo[3,4-d]pyrimidin-6-yl)phenyl]pyridine-3-sulfonamide]",,274,13.7,,,,,,,,,,,,,,4.1
"Cc1n[nH]c2nc(-c3ccc(NS(=O)(=O)c4ccccn4)cc3)nc(NCCN(C)C)c12 [Compound 24, N-[4-(4-[[2-(dimethylamino)ethyl]amino]-3-methyl-1H-pyrazolo[3,4-d]pyrimidin-6-yl)phenyl]pyridine-2-sulfonamide]",,300,278,,,,,,45.1,1.55,,,,,,2.3,20.7
"COc1ccnc(S(=O)(=O)Nc2ccc(-c3nc(NCCN(C)C)c4c(C)n[nH]c4n3)cc2)c1 [Compound 27, N-(4-(4-((2-(dimethylamino)ethyl)amino)-3-methyl-1H-pyrazolo[3,4-d]pyrimidin-6-yl)phenyl)-4-methoxypyridine-2-sulfonamide]",,256,36.5,,,,,,40.3,,,,,,,2.7,341
Cc1n[nH]c2nc(-c3ccc(NS(=O)(=O)c4cc(Cl)ccc4F)c(F)c3)nc(OC3CCN(C(C)C)CC3)c12 [Compound 28],,293,1.7,,,,,,4020,51,Cmax = 4017 ng/mL F = 51%,,,,4020,3.4,
"Cc1n[nH]c2nc(-c3ccc(NS(=O)(=O)c4cc(Cl)ccc4F)cc3)nc(O[C@@H]3CCNC[C@@H]3F)c12 [Compound 29, 5-chloro-2-fluoro-N-(4-(4-(((3S,4R)-3-fluoropiperidin-4-yl)oxy)-3-methyl-1H-pyrazolo[3,4-d]pyrimidin-6-yl)phenyl)benzenesulfonamide]",8.8,245,3,54,77,26,75,26,115,8,,9.7,0.45,16,,1.04,2476
Cc1nc2c([nH]1)c(=O)n(C)c(=O)n2Cc1ccco1 [Furafylline],78,,,,,,,,,,,,,,,,

# Now from value to molecule, other results behind:
"inhibition at 20 min, 10 µM [1] [%]","solubility at 2 h ([2]; pH 5, fessif) [µM]","solubility at 2 h ([2]; pH 7.4, aqueous buffer) [µM]","inhibition at 5 min, 10 µM [3] [%]","inhibition at 10 min, 10 µM [3] [%]","inhibition at 20 min, 10 µM [4] [%]","inhibition at 20 min, 10 µM [5] [%]","inhibition at 20 min, 10 µM [6] [%]",Cmax [8] [ng/mL],bioavailability [8] [%],pK Data in Rat: F [9],half-life [10] [h],bioavailability [10] [%],Cmax ([10]; Cmax (ng/ml)) [ng/mL],Cmax ([10]; pK Data in Rat: Cmax) [ng/mL],half-life [8] [h],Structure (SMILES),hERG/IC50 [7]
11,,,93,91,39,92,44,,,,,,,,,"Cc1n[nH]c2nc(-c3ccc(NS(=O)(=O)c4cc(Cl)ccc4F)cc3)nc(O[C@@H]3CCNCC3(F)F)c12 [Compound 44, (R)-5-chloro-N-(4-(4-((3,3-difluoropiperidin-4-yl)oxy)-3-methyl-1H-pyrazolo[3,4-d]pyrimidin-6-yl)phenyl)-2-fluorobenzenesulfonamide]",
,277,7.98,,,,,,,,Cmax = 131 ng/mL F = 4.7%,3.63,4.68,131,131,,"Cc1n[nH]c2nc(-c3ccc(NS(=O)(=O)c4cc(F)ccc4F)cc3)nc(NCCN(C)C)c12 [Compound 45, N-(4-(4-((2-(dimethylamino)ethyl)amino)-3-methyl-1H-pyrazolo[3,4-d]pyrimidin-6-yl)phenyl)-2,5-difluorobenzenesulfonamide]",
2.4,205,1.9,-24,-2,12,65,7.5,1120,,,,,,,12,"Cc1n[nH]c2nc(-c3ccc(NS(=O)(=O)c4cc(C(F)(F)F)ccn4)cc3)nc(O[C@@H]3CCN(C)C[C@@H]3F)c12 [Compound 63, N-[4-(4-{[(3S,4R)-3-fluoro-1-methylpiperidin-4-yl]oxy}-3-methyl-1H-pyrazolo[3,4-d]pyrimidin-6-yl)phenyl]-4-(trifluoromethyl)pyridine-2-sulfonamide]",
,275,16,,,,,,111,4.9,Cmax = 69 ng/mL F = 4.9%,,,,69,2.5,"Cc1n[nH]c2nc(-c3ccc(NS(=O)(=O)c4cc(Cl)ccc4F)c(F)c3)nc(NCCN(C)CCO)c12 [Compound 78, 5-chloro-2-fluoro-N-{2-fluoro-4-[4-({2-[(2-hydroxyethyl)(methyl)amino]ethyl}amino)-3-methyl-1H-pyrazolo[3,4-d]pyrimidin-6-yl]phenyl}benzenesulfonamide]",
-0.9,297,3.38,0.5,3,1.2,2.2,0,621,22,Cmax = 2470 ng/mL F = 17.9%,3.15,17.9,2470,2470,2.3,"Cc1n[nH]c2nc(-c3ccc(NS(=O)(=O)c4cc(F)ccc4F)c(F)c3)nc(NCCN(C)C)c12 [Compound 84, N-[4-(4-[[2-(dimethylamino)ethyl]amino]-3-methyl-1H-pyrazolo[3,4-d]pyrimidin-6-yl)-2-fluorophenyl]-2,5-difluorobenzenesulfonamide]",177
-0.7,315,4.5,19,-2.9,7.7,9.4,1.8,,,Cmax = 2747 ng/mL F = 92%,3.6,92,2750,2750,,"Cc1n[nH]c2nc(-c3ccc(NS(=O)(=O)c4cc(F)ccc4F)c(Cl)c3)nc(NCCN(C)C)c12 [Compound 85, N-(2-chloro-4-(4-((2-(dimethylamino)ethyl)amino)-3-methyl-1H-pyrazolo[3,4-d]pyrimidin-6-yl)phenyl)-2,5-difluorobenzenesulfonamide]",82
,,,,,,,,,,Cmax = 141 ng/mL F = 5.6%,10,5.6,141,141,,"Cc1n[nH]c2nc(-c3ccc(NS(=O)(=O)c4cc(Cl)ccc4F)c(Cl)c3)nc(NCCN(C)CCO)c12 [Compound 99, 5-chloro-N-{2-chloro-4-[4-({2-[(2-hydroxyethyl)(methyl)amino]ethyl}amino)-3-methyl-1H-pyrazolo[3,4-d]pyrimidin-6-yl]phenyl}-2-fluorobenzenesulfonamide]",91
